Format in all cases: cell-based
The test system of one experiment is TNF-α. Kind of experiment: TNF-α inhibition in LPS-stimulated PBMC cells (ELISA). The settings on record: LPS 1 µg/ml, 18-20 h. The text has this:
(§1) The tested cell line used were: Multiple myeloma cell line MM.1S, Mino (human mantle cell lymphoma cell), SR (anaplastic large cell lymphoma cell), PBMC (peripheral blood mononuclear cell), which were purchased from ATCC (American type Culture Collection). The medium was RPMI1640 supplemented with 10% FBS (fetal calf serum) and 1% Penicillin-Streptomycin. The cells used were identified as correct cells by STR cells, and were negative for mycoplasma through routine inspections.
PBMC cells were cultured at 37° C. in 5% CO2 atmosphere, and then seeded in 96-well plates at 1×10^6 cells/well. […] Cells were pretreated with compounds and vehicle control (DMSO) for 1 h, then stimulated with lipopolysaccharide (LPS; 1 µg/ml), and continually cultured for 18-20 h. Then, the supernatant was collected, and tested for TNF-α level by ELISA kit. IC50 was then calculated by Graphpad Prism 7.0.
For orientation: An ELISA detects its analyte on a solid surface through an enzyme-linked reagent.

In experiment [1] the test system is Multiple myeloma cell line MM.1S. The experiment is described as follows: Cell viability / proliferation inhibition IC50 in MM.1S cells, 72 h. The settings on record: Homo sapiens, MM1.S, 72 h treatment.
Source text: as §1
(§2) IC50 values of the compounds of the present disclosure (including examples 1-11 compounds) were measured using Cell Titer Blue, Cell Titer GLO, or WST reagent from Promega Company. Assay details are as follows: Cells were seeded in 100 µL RPMI1640 complete medium containing serum at a density of 15,000 cells/well. After 24 h, the inoculated cells were treated with diluted commercial inhibitor and the compounds of the present disclosure to be tested after serial dilution. After the cells were treated with the compounds of the present disclosure to be tested (including examples 1-11 compounds) for 72 h, cell viability was determined after adding the cell viability detection kit listed above according to the reagent operating instructions. The negative control was DMSO, and the positive control was a commercial inhibitor, both of which were used to treat the cells through the same method as that of the compounds of the present disclosure. The growth inhibition of the compounds of the present disclosure on cells was plotted by Prism Graphpad software, and the IC50 values of the compounds of the present disclosure were calculated therefrom.
(§3) We tested the activities of the compounds of the present invention (including the compounds in Table 1 and Examples 1-11 compounds) in MM.1S cell, mantle cell lymphoma Mino cells, and anaplastic large cell lymphoma SR cells through a dose-dependent manner. These cells overexpressed IKZF⅓ and was not sensitive to existing immunomodulatory drugs. The cells were treated with the compounds of the present invention at 10 different successively decreasing concentrations (starting at the highest concentration of 10 µM; 5-fold serial dilutions) for 72 h, and then the cell viability determination was performed in accordance with CCK-8 reagent operating instructions. The experiment was repeated more than three times.

The subject of experiment [2] is Mino (human mantle cell lymphoma cell). Kind of experiment: Cell viability / proliferation inhibition IC50 in Mino lymphoma cells, 72 h, WST. The settings on record: Mino cell line, WST reagent.
Source text: as §1, §2, §3

Experiment [3] has as its system SR (anaplastic large cell lymphoma cell). Kind of experiment: Cell viability / proliferation inhibition IC50 in SR lymphoma cells, 72 h, WST. The settings on record: SR cell line, WST reagent.
Source text: as §1, §2
We tested the activities of the compounds of the present invention (including the compounds in Table 1 and Examples 1-11 compounds) in MM.1S cell, mantle cell lymphoma Mino cells, and anaplastic large cell lymphoma SR cells through a dose-dependent manner. These cells overexpressed IKZF⅓ and was not sensitive to existing immunomodulatory drugs. […]

Another experiment concerns the target T1, IKZF3 (Homo sapiens, UniProt Q96SW2+Q9UKT9).
T1 construct: degradation of IKZF1 and IKZF3 proteins caused by the compounds of the present invention in multiple myeloma cells MM.1S; endogenous in cells; host or cells: MM.1S (ATCC)
Kind of experiment: Western blotting assay of IKZF3 degradation in MM.1S cells. The settings on record: 16 h, Western blot, FIG. 1. As for the experimental part:
Most antibodies were purchased from Cell Signaling Technology, including IKZF1 (#9034S), IKZF3(#15103S). GAPDH antibody was purchased from Abcam Company.
Tumor cells were plated in a 24-well plate at a cell seeding density of 3×10^5 cells/mL, with 1 mL culture media per well. After 24 h, the cells were treated with different concentrations of the compounds of the present disclosure. After 16 hours, the cells were collected, and washed with PBS. The supernatant was discarded, and the cells were placed on ice, and treated with RIPA protein lysate containing Halt protease and phosphatase inhibitor. The lysate was centrifuged at 10000 RPM at 4° C. for 10 minutes, and the supernatant was collected. An equal amount of proteins were loaded in 4X SDS sample solution, denatured at 95° C. for 5 minutes, and then freezed to -20° C. or directly subjected to protein electrophoresis (4-15% gradient gel, Bio-rad). […]
DC50 value (the drug concentration required for degrading proteins by 50%, abbreviated as DC50) reads method: comparing the gray values of the Western blotting bands for the drug treatment with the gray values of the Western blotting band for the DMSO control, and reading the drug concentration range corresponding to the gray value of the Western blotting bands for the drug treatment which is equal to half of the gray value of the Western blotting band for the DMSO control. […]
A general note: Immunoblotting shows a protein as a band on a membrane.

As usually defined, the IC50 is the concentration needed to halve the response being measured. The low end stands for higher potency, the high end for lower potency.

The structures appear in SMILES notation. Where only a bound is given, the exact number is not on record here.

T1 sequence (Q9UKT9 whole entry): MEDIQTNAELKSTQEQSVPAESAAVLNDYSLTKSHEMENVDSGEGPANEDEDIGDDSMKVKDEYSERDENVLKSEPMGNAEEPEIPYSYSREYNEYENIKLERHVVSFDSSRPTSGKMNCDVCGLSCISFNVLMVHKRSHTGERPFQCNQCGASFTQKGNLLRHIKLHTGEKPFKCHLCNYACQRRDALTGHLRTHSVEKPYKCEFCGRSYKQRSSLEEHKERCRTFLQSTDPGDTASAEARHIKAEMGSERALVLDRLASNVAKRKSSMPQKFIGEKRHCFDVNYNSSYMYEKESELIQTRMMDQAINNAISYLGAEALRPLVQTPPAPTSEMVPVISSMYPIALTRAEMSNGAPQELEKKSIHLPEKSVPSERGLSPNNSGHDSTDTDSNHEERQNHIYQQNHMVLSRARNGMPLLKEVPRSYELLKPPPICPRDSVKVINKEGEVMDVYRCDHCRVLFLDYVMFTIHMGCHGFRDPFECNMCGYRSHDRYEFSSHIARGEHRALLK
T1 sequence (Q96SW2 whole entry): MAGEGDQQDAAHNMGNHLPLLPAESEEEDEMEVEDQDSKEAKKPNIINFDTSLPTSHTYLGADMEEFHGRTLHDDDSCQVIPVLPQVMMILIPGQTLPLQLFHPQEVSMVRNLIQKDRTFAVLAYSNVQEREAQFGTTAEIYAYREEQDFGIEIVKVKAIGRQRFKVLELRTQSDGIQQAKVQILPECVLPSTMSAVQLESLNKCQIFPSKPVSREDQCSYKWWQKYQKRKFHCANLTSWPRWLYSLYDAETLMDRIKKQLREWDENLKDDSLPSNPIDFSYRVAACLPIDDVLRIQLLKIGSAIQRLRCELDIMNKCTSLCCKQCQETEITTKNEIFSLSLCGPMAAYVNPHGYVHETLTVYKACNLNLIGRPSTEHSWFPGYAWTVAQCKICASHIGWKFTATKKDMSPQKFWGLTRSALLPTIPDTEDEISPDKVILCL
T1 sequence (Q16531 whole entry partner): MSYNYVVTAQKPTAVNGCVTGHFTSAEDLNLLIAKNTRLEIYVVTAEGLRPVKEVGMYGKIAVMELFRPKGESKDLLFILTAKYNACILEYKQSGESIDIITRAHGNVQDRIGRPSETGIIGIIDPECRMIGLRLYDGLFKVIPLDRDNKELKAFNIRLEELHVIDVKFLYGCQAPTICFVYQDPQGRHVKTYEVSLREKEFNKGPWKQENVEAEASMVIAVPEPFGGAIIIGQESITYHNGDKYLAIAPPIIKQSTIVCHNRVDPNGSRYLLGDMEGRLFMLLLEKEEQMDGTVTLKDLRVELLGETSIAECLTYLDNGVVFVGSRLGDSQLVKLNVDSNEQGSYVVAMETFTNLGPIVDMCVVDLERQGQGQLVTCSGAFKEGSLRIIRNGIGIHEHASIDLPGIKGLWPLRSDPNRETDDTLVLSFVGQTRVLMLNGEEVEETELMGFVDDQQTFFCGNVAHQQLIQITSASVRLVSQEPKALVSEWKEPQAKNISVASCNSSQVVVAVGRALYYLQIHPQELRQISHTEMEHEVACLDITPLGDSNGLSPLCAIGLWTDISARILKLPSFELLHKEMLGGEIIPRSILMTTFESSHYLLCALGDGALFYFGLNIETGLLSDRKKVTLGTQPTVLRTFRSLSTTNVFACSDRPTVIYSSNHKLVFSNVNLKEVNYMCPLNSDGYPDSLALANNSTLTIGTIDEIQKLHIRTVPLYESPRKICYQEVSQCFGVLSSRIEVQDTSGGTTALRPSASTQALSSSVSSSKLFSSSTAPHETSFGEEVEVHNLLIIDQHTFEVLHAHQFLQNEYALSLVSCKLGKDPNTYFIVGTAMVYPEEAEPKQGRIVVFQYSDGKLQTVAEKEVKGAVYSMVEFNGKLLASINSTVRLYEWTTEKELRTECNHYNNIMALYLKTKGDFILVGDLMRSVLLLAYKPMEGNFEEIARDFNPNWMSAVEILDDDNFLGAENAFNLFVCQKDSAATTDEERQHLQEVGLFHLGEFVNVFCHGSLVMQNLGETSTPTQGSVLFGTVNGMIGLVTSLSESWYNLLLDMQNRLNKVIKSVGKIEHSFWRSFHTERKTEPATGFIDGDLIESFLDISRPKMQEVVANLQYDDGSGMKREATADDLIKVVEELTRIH

Regarding `O=C1CCC(N2Cc3c(SCc4cc5cc(C(=O)NC67CC8CC(CC(C8)C6)C7)ccc5s4)cccc3C2=O)C(=O)N1` (centres unmarked) [SIAIS338091, N-(adamantan-1-yl)-2-(((2-(2,6-dioxopiperidin-3-yl)-1-oxoisoindolin-4-yl)thio)methyl)benzo[b]thiophene-5-carboxamide], the IC50 in the experiment on TNF-α was below 1 nM; in experiment [1], 0.02 nM.
Consider `Nc1cccc2c1CN(C1CCC(=O)NC1=O)C2=O` (centres unmarked) [Lenalidomide, reference compound], for which the IC50 with TNF-α was in the range of 10 to 100 nM.
Molecule `Nc1cccc2c1C(=O)N(C1CCC(=O)NC1=O)C2=O` (centres unmarked) [Pomalidomide, reference compound] displayed an IC50 in experiment [2] (Homo sapiens, MINO) of 48 nM.
As for `O=C1CCC(N2C(=O)c3cccc(NCc4ccc(CNC56CC7CC(CC(C7)C5)C6)cn4)c3C2=O)C(=O)N1` (centres unmarked) [SIAIS355067, 4-(((5-((adamantan-1-ylamino)methyl)pyridin-2-yl)methyl)amino)-2-(2,6-dioxopiperidin-3-yl)isoindoline-1,3-dione], the half-maximal inhibitory concentration (IC50) in the experiment on TNF-α is below 5 nM; in experiment [1], 4.46 ± 0.18 nM.
`O=C1CCC(N2Cc3c(SCCn4cc(CN[C@]56CC7CC(C[C@@H](C7)C5)C6)nn4)cccc3C2=O)C(=O)N1` (some centres unmarked) [SIAIS287097, 3-(4-((2-(4-((adamantan-1-ylamino)methyl)-1H-1,2,3-triazol-1-yl)ethyl)thio)-1-oxoisoindolin-2-yl)piperidine-2,6-dione]: the IC50 with TNF-α is below 5 nM.
For the molecule `O=C1CCC(N2Cc3c(SCc4ccc5cc(CN[C@]67CC8CC(C[C@@H](C8)C6)C7)ccc5n4)cccc3C2=O)C(=O)N1` (some centres unmarked) [SIAIS338048, 3-(4-(((6-((adamantan-1-ylamino)methyl)quinolin-2-yl)methyl)thio)-1-oxoisoindolin-2-yl)piperidine-2,6-dione], in experiment [1], the IC50 is 0.06 ± 0.04 nM.
Regarding `O=C1CCC(N2Cc3c(SCc4csc(CNC56CC7CC(CC(C7)C5)C6)n4)cccc3C2=O)C(=O)N1` (centres unmarked) [SIAIS313160, 3-(4-(((2-((adamantan-1-ylamino)methyl)thiazol-4-yl)methyl)thio)-1-oxoisoindolin-2-yl)piperidine-2,6-dione], the values for the IC50 (in the experiment with TNF-α; in experiment [1]) were below 1 nM and 0.13 ± 0.03 nM, respectively.
In experiment [1], `O=C1CCC(N2Cc3c(SCc4csc(C(=O)NC56CC7CC(CC5C7)C6)n4)cccc3C2=O)C(=O)N1` (centres unmarked) [SIAIS355073, 4-(((2-(2,6-dioxopiperidin-3-yl)-1-oxoisoindolin-4-yl)thio)methyl)-N-(octahydro-2,5-methanopentalen-6a-yl)thiazole-2-carboxamide] registered an IC50 of 0.51 ± 0.25 nM.
`O=C1CCC(N2Cc3c(SCc4nc(CN[C@H]5[C@H]6CC7CC(C6)C[C@@H]5C7)cs4)cccc3C2=O)C(=O)N1` (some centres unmarked) [SIAIS313185, 3-(4-(((4-((adamantan-2-ylamino)methyl)thiazol-2-yl)methyl)thio)-1-oxoisoindolin-2-yl)piperidine-2,6-dione]: inhibition in experiment [1] was half-maximal at 0.16 ± 0.02 nM (IC50). Against the preceding molecule, the IC50 is about 3.2-fold lower.
In experiment [1], `O=C1CCC(N2Cc3c(SCc4ccc(CNC56CC7CC(CC(C7)C5)C6)o4)cccc3C2=O)C(=O)N1` (centres unmarked) [SIAIS313118, 3-(4-(((5-((adamantan-1-ylamino)methyl)furan-2-yl)methyl)thio)-1-oxoisoindolin-2-yl)piperidine-2,6-dione] registered an IC50 of 0.09 ± 0.02 nM. Against the preceding molecule, the IC50 is about 1.8-fold lower.
As for `O=C1CCC(N2Cc3c(SCc4nc(CNC56CC7CC(CC(C7)C5)C6)cs4)cccc3C2=O)C(=O)N1` (centres unmarked) [SIAIS287129, 3-(4-(((4-((adamantan-1-ylamino)methyl)thiazol-2-yl)methyl)thio)-1-oxoisoindolin-2-yl)piperidine-2,6-dione], the IC50 was 4.02 nM in experiment [3] (Homo sapiens, SR); 2.59 nM in experiment [2] (Homo sapiens, MINO); 0.181 nM in experiment [1].
Consider `O=C1CCC(N2Cc3c(SCc4cc5cc(CNC67CC8CC(CC(C8)C6)C7)ccc5o4)cccc3C2=O)C(=O)N1` (centres unmarked) [SIAIS287116, 3-(4-(((5-((adamantan-1-ylamino)methyl)benzofuran-2-yl)methyl)thio)-1-oxoisoindolin-2-yl)piperidine-2,6-dione], for which the IC50 in experiment [3] (Homo sapiens, SR) was around 0.5 nM; in experiment [3] it was 0.454 nM; in the experiment with TNF-α, below 1 nM; in experiment [2] (Homo sapiens, MINO), around 0.39 nM; in experiment [2], 0.387 nM; in experiment [1], 0.003 nM. In addition, the “concentration at which IKZF3 protein is significantly degraded” value on IKZF3 is reported as “less than 0.01 nM”.

The record behind these values is US20230203022A1, “HETEROCYCLE AND GLUTARIMIDE SKELETON-BASED COMPOUND AND APPLICATIONS THEREOF” (Shanghaitech University, priority 2020, published 2023).
